Experimental data taken from PubChem BioAssay AID194 (DTP/NCI, 2004).
Several values for one entry are separate records, joined by “and”; a condition that tells them apart may be missing. Equal values may be shown once. Results filed as inconclusive are left out.

System: BDF1 mice, B16 melanoma s.c., survival/tumor T/C
Test: NCI In Vivo Anticancer Drug Screen. Data for tumor model B16 Melanoma (subcutaneous) in B6D2F1 (BDF1) mice
Method: The antitumor activity of compounds was measured in mice bearing transplantable tumors. Survival or tumor size were measured and the results are expressed as the measurement made in the treated group (T) divided by the measurement made in the vehicle treated control group (C). The tumor model used in this assay is B16 Melanoma (subcutaneous) in B6D2F1 (BDF1) mice

O=P(O)(NCCCl)NCCCl
T/C (endpoint: median survival time, dose: 50.0 mg/kg/injection, schedule: Q01DX001 (ip), vehicle: saline, higher = longer survival): 98 % of control | T/C (endpoint: median survival time, dose: 150.0 mg/kg/injection, schedule: Q01DX001 (ip), vehicle: saline, higher = longer survival): 162 % of control

CN(N=O)C(N)=O
T/C (endpoint: median survival time, dose: 3.12 mg/kg/injection, schedule: Q01DX009 (ip), vehicle: saline, higher = longer survival): 97 % of control | T/C (endpoint: median survival time, dose: 6.25 mg/kg/injection, schedule: Q01DX009 (ip), vehicle: saline, higher = longer survival): 105 % of control | T/C (endpoint: median survival time, dose: 12.5 mg/kg/injection, schedule: Q01DX009 (ip), vehicle: saline, higher = longer survival): 109 % of control

Cc1nc(N)nc(N)c1-c1ccc(Cl)c(Cl)c1
T/C (endpoint: median survival time, dose: 1.0 mg/kg/injection, schedule: Q02DX009 (ip), vehicle: Klucel (hydroxypropylcellulose) (HPC), higher = longer survival): 103 % of control | T/C (endpoint: median survival time, dose: 2.0 mg/kg/injection, schedule: Q02DX009 (ip), vehicle: Klucel (hydroxypropylcellulose) (HPC), higher = longer survival): 99 % of control | T/C (endpoint: median survival time, dose: 4.0 mg/kg/injection, schedule: Q02DX009 (ip), vehicle: Klucel (hydroxypropylcellulose) (HPC), higher = longer survival): 88 % of control | T/C (endpoint: median survival time, dose: 8.0 mg/kg/injection, schedule: Q02DX009 (ip), vehicle: Klucel (hydroxypropylcellulose) (HPC), higher = longer survival): 112 % of control

COC1/C=C\C=C(/C)C(=O)NC2=CC(=O)C(=O)C(=C2O)CC(C)CC(OC)C(O)C(C)/C=C(\C)C1OC(N)=O (stereo not given)
T/C (endpoint: median survival time, dose: 0.78 mg/kg/injection, schedule: Q01DX005 (ip), vehicle: other, higher = longer survival): 88 % of control | T/C (endpoint: median survival time, dose: 3.13 mg/kg/injection, schedule: Q01DX005 (ip), vehicle: other, higher = longer survival): 114 % of control | T/C (endpoint: median survival time, dose: 6.25 mg/kg/injection, schedule: Q01DX005 (ip), vehicle: other, higher = longer survival): 105 % of control

C[C@@H](CN1CC(=O)NC(=O)C1)N1CC(=O)NC(=O)C1
T/C (endpoint: median survival time, dose: 6.25 mg/kg/injection, schedule: Q04DX003 (ip), vehicle: saline, higher = longer survival): 91 % of control | T/C (endpoint: median survival time, dose: 12.5 mg/kg/injection, schedule: Q04DX003 (ip), vehicle: saline, higher = longer survival): 97 % of control | T/C (endpoint: median survival time, dose: 16.0 mg/kg/injection, schedule: Q01DX009 (ip), vehicle: Klucel (hydroxypropylcellulose) (HPC), higher = longer survival): 100 % of control | T/C (endpoint: median survival time, dose: 16.0 mg/kg/injection, schedule: Q01DX009 (ip), vehicle: water, higher = longer survival): 117 % of control | T/C (endpoint: median survival time, dose: 25.0 mg/kg/injection, schedule: Q04DX003 (ip), vehicle: saline, higher = longer survival): 107 % of control | T/C (endpoint: median survival time, dose: 32.0 mg/kg/injection, schedule: Q01DX009 (ip), vehicle: Klucel (hydroxypropylcellulose) (HPC), higher = longer survival): 110 % of control | T/C (endpoint: median survival time, dose: 64.0 mg/kg/injection, schedule: Q01DX009 (ip), vehicle: Klucel (hydroxypropylcellulose) (HPC), higher = longer survival): 168 % of control | T/C (endpoint: median survival time, dose: 100.0 mg/kg/injection, schedule: Q04DX003 (ip), vehicle: saline, higher = longer survival): 119 % of control | T/C (endpoint: median survival time, dose: 200.0 mg/kg/injection, schedule: Q04DX003 (ip), vehicle: saline, higher = longer survival): 115 % of control | T/C (endpoint: median survival time, dose: 400.0 mg/kg/injection, schedule: Q04DX003 (ip), vehicle: saline, higher = longer survival): 108 % of control | T/C (endpoint: median survival time, dose: 800.0 mg/kg/injection, schedule: Q04DX003 (ip), vehicle: saline, higher = longer survival): 119 % of control

Nc1ncn(C2OC(CO)C(O)C2O)c(=O)n1 (stereo not given)
T/C (endpoint: median survival time, dose: 0.2 mg/kg/injection, schedule: Q01DX009 (ip), vehicle: saline, higher = longer survival): 100 % of control | T/C (endpoint: median survival time, dose: 0.4 mg/kg/injection, schedule: Q01DX009 (ip), vehicle: saline, higher = longer survival): 104 % of control | T/C (endpoint: median survival time, dose: 0.5 mg/kg/injection, schedule: Q01DX009 (ip), vehicle: saline, higher = longer survival): 87 % of control | T/C (endpoint: median survival time, dose: 0.75 mg/kg/injection, schedule: Q01DX009 (ip), vehicle: Klucel (hydroxypropylcellulose) (HPC), higher = longer survival): 111 % of control | T/C (endpoint: median survival time, dose: 0.8 mg/kg/injection, schedule: Q01DX009 (ip), vehicle: saline, higher = longer survival): 123 % of control | T/C (endpoint: median survival time, dose: 1.0 mg/kg/injection, schedule: Q01DX009 (ip), vehicle: saline, higher = longer survival): 105 % of control | T/C (endpoint: median survival time, dose: 1.6 mg/kg/injection, schedule: Q01DX009 (ip), vehicle: saline, higher = longer survival): 106 % of control | T/C (endpoint: median survival time, dose: 3.2 mg/kg/injection, schedule: Q01DX009 (ip), vehicle: saline, higher = longer survival): 114 % of control and 116 % of control | T/C (endpoint: median tumor weight (est.), dose: 0.75 mg/kg/injection, schedule: Q01DX009 (ip), vehicle: saline, higher = larger tumour): 87 % of control and 96 % of control | T/C (endpoint: median tumor weight (est.), dose: 1.5 mg/kg/injection, schedule: Q01DX009 (ip), vehicle: saline, higher = larger tumour): 41 % of control and 48 % of control | T/C (endpoint: median tumor weight (est.), dose: 3.0 mg/kg/injection, schedule: Q01DX009 (ip), vehicle: saline, higher = larger tumour): 52 % of control and 57 % of control | T/C (endpoint: median tumor weight (est.), dose: 6.0 mg/kg/injection, schedule: Q01DX009 (ip), vehicle: saline, higher = larger tumour): 21 % of control and 26 % of control
